# Key:
# [1] = test system: Monocotyledonous and dicotyledonous weed; assay: Post-emergence test experiment, weed control effect (Table 2); assay type: in vivo; set-up: key to weed control effect, Setaria viridis (level) / weed control effect, Rorippa indica (level) / weed control effect, Abutilon theophrasti (level) / weed control effect, Echinochloa crus-galli (level) / weed control effect, Digitaria sanguinalis (level): Level 10: completely dead; Level 9: above 90% growth inhibition rate; Level 8: above 80% growth inhibition rate; Level 7: above 70% growth inhibition rate; Level 6: above 60% growth inhibition rate; Level 5: above 50% growth inhibition rate; Level 4: above 30% growth inhibition rate; Level 3: above 20% growth inhibition rate; Level 2: above 10% growth inhibition rate; Level 1: above 1-10% growth inhibition rate; Level 0: no effect; details: 3 weeks after spraying, greenhouse
# Summary of the method: (§1)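 Weed and crop seeds (wheat, corn, rice, soybean, cotton, oilseed, millet, sorghum) grown in soil in greenhouse; sprayed at 2-3 leaf stage, 2-3 weeks after sowing, with compound in acetone/Tween 80/water. Effects assessed after 3 weeks further greenhouse culture.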
# [2] = test system: main crop (wheat, corn, rice, soybean, cotton, oilseed, millet and sorghum); assay: Post-emergence test experiment, main crops (Table 2); assay type: in vivo; set-up: key: Level 10: completely dead; Level 9: above 90% growth inhibition rate; Level 8: above 80% growth inhibition rate; Level 7: above 70% growth inhibition rate; Level 6: above 60% growth inhibition rate; Level 5: above 50% growth inhibition rate; Level 4: above 30% growth inhibition rate; Level 3: above 20% growth inhibition rate; Level 2: above 10% growth inhibition rate; Level 1: above 1-10% growth inhibition rate; Level 0: no effect; details: 3 weeks after spraying, greenhouse
# Summary of the method: as §1
SMILES,"weed control effect, Abutilon theophrasti (level) ([1]; 120 g/ha)","weed control effect, Bidens pilosa (level) ([1]; 120 g/ha)","weed control effect, Digitaria sanguinalis (level) ([1]; 120 g/ha)","weed control effect, Echinochloa crus-galli (level) ([1]; 120 g/ha)","weed control effect, Rorippa indica (level) ([1]; 120 g/ha)","weed control effect, Setaria viridis (level) ([1]; 120 g/ha)","effect on crop, corn (level) ([2]; 120 g/ha)","effect on crop, rice (level) ([2]; 120 g/ha)","effect on crop, wheat (level) ([2]; 120 g/ha)","weed control effect, Abutilon theophrasti (level) ([1]; 60 g/ha)","weed control effect, Bidens pilosa (level) ([1]; 60 g/ha)","weed control effect, Digitaria sanguinalis (level) ([1]; 60 g/ha)","weed control effect, Echinochloa crus-galli (level) ([1]; 60 g/ha)","weed control effect, Rorippa indica (level) ([1]; 60 g/ha)","weed control effect, Setaria viridis (level) ([1]; 60 g/ha)","effect on crop, corn (level) ([2]; 60 g/ha)","effect on crop, rice (level) ([2]; 60 g/ha)","effect on crop, wheat (level) ([2]; 60 g/ha)",other results
CCOc1c(C(=O)Oc2c(C(=O)c3ccc(S(C)(=O)=O)c(Cn4nc(C)cc4C)c3Cl)cnn2CC)cnn1C [Compound 93],6 (Level 6: above 60% growth inhibition rate),6 (Level 6: above 60% growth inhibition rate),1 (Level 1: above 1-10% growth inhibition rate),10,4 (Level 4: above 30% growth inhibition rate),3 (Level 3: above 20% growth inhibition rate),0,0,0,,,,,,,,,,
CCc1nn(CC)c(OC(=O)c2cn(C)nc2C)c1C(=O)c1ccc(S(C)(=O)=O)c(COCC(F)F)c1Cl [Compound 94],,,,,,,,,,10,8 (Level 8: above 80% growth inhibition rate),8 (Level 8: above 80% growth inhibition rate),8 (Level 8: above 80% growth inhibition rate),10,10,0,3 (Level 3: above 20% growth inhibition rate),0,
CCc1nn(CC)c(OC(=O)c2cn(C)nc2C)c1C(=O)c1ccc(S(C)(=O)=O)c(Cn2nc(C)cc2C)c1Cl [Compound 95],6 (Level 6: above 60% growth inhibition rate),6 (Level 6: above 60% growth inhibition rate),1 (Level 1: above 1-10% growth inhibition rate),10,4 (Level 4: above 30% growth inhibition rate),3 (Level 3: above 20% growth inhibition rate),0,0,0,,,,,,,,,,
CCOCc1c(S(C)(=O)=O)ccc(C(=O)c2c(C3CC3)nn(C(C)C)c2OC(=O)c2cn(C)nc2C)c1Cl [Compound 96],,,,,,,,,,10,8 (Level 8: above 80% growth inhibition rate),8 (Level 8: above 80% growth inhibition rate),10,10,10,0,4 (Level 4: above 30% growth inhibition rate),0,
Cc1cnn(Cc2c(S(C)(=O)=O)ccc(C(=O)c3cnn(C(C)C)c3OC(=O)c3cn(C)nc3C)c2Cl)c1 [Compound 97],6 (Level 6: above 60% growth inhibition rate),6 (Level 6: above 60% growth inhibition rate),1 (Level 1: above 1-10% growth inhibition rate),10,4 (Level 4: above 30% growth inhibition rate),3 (Level 3: above 20% growth inhibition rate),0,0,0,,,,,,,,,,
Cc1nn(C)cc1C(=O)Oc1c(C(=O)c2ccc(S(C)(=O)=O)c(COCC(F)(F)F)c2Cl)c(C)nn1C(C)C [Compound 98],,,,,,,,,,,,,,,,,,,"weed control effect, Abutilon theophrasti (level) ([1]; 30 g/ha): 5 (Level 5: above 50% growth inhibition rate); weed control effect, Bidens pilosa (level) ([1]; 30 g/ha): 7 (Level 7: above 70% growth inhibition rate); weed control effect, Digitaria sanguinalis (level) ([1]; 30 g/ha): 8 (Level 8: above 80% growth inhibition rate); weed control effect, Echinochloa crus-galli (level) ([1]; 30 g/ha): 10; weed control effect, Rorippa indica (level) ([1]; 30 g/ha): 10; weed control effect, Setaria viridis (level) ([1]; 30 g/ha): 10; effect on crop, corn (level) ([2]; 30 g/ha): 1 (Level 1: above 1-10% growth inhibition rate); effect on crop, rice (level) ([2]; 30 g/ha): 5 (Level 5: above 50% growth inhibition rate); effect on crop, wheat (level) ([2]; 30 g/ha): 0"
CCc1nn(C(C)C)c(OC(=O)c2cn(C)nc2C)c1C(=O)c1ccc(S(C)(=O)=O)c(Cn2cccn2)c1Cl [Compound 99],,,,,,,,,,,,,,,,,,,"weed control effect, Abutilon theophrasti (level) ([1]; 30 g/ha): 7 (Level 7: above 70% growth inhibition rate); weed control effect, Bidens pilosa (level) ([1]; 30 g/ha): 7 (Level 7: above 70% growth inhibition rate); weed control effect, Digitaria sanguinalis (level) ([1]; 30 g/ha): 7 (Level 7: above 70% growth inhibition rate); weed control effect, Echinochloa crus-galli (level) ([1]; 30 g/ha): 10; weed control effect, Rorippa indica (level) ([1]; 30 g/ha): 10; weed control effect, Setaria viridis (level) ([1]; 30 g/ha): 8 (Level 8: above 80% growth inhibition rate); effect on crop, corn (level) ([2]; 30 g/ha): 1 (Level 1: above 1-10% growth inhibition rate); effect on crop, rice (level) ([2]; 30 g/ha): 1 (Level 1: above 1-10% growth inhibition rate); effect on crop, wheat (level) ([2]; 30 g/ha): 0"
Cc1nn(C)cc1C(=O)Oc1c(C(=O)c2ccc(S(C)(=O)=O)c(COCC3CCCO3)c2Cl)c(C)nn1C(C)C (stereo not drawn) [Compound 101],,,,,,,,,,,,,,,,,,,"weed control effect, Abutilon theophrasti (level) ([1]; 250 g/ha): 7 (Level 7: above 70% growth inhibition rate); weed control effect, Bidens pilosa (level) ([1]; 250 g/ha): 7 (Level 7: above 70% growth inhibition rate); weed control effect, Digitaria sanguinalis (level) ([1]; 250 g/ha): 6 (Level 6: above 60% growth inhibition rate); weed control effect, Echinochloa crus-galli (level) ([1]; 250 g/ha): 9 (Level 9: above 90% growth inhibition rate); weed control effect, Rorippa indica (level) ([1]; 250 g/ha): 10; weed control effect, Setaria viridis (level) ([1]; 250 g/ha): 7 (Level 7: above 70% growth inhibition rate); effect on crop, corn (level) ([2]; 250 g/ha): 1 (Level 1: above 1-10% growth inhibition rate); effect on crop, rice (level) ([2]; 250 g/ha): 8 (Level 8: above 80% growth inhibition rate); effect on crop, wheat (level) ([2]; 250 g/ha): 0"
Cn1cc(Cl)c(C(=O)Oc2c(C(=O)c3ccc(S(C)(=O)=O)c(COCC(F)F)c3Cl)cnn2C)n1 [Compound 102],,,,,,,,,,,,,,,,,,,"weed control effect, Abutilon theophrasti (level) ([1]; 30 g/ha): 7 (Level 7: above 70% growth inhibition rate); weed control effect, Bidens pilosa (level) ([1]; 30 g/ha): 7 (Level 7: above 70% growth inhibition rate); weed control effect, Digitaria sanguinalis (level) ([1]; 30 g/ha): 7 (Level 7: above 70% growth inhibition rate); weed control effect, Echinochloa crus-galli (level) ([1]; 30 g/ha): 10; weed control effect, Rorippa indica (level) ([1]; 30 g/ha): 10; weed control effect, Setaria viridis (level) ([1]; 30 g/ha): 6 (Level 6: above 60% growth inhibition rate); effect on crop, corn (level) ([2]; 30 g/ha): 1 (Level 1: above 1-10% growth inhibition rate); effect on crop, rice (level) ([2]; 30 g/ha): 5 (Level 5: above 50% growth inhibition rate); effect on crop, wheat (level) ([2]; 30 g/ha): 0"
Cc1cc(C)n(Cc2c(S(C)(=O)=O)ccc(C(=O)c3c(C)nn(C(C)C)c3OC(=O)c3nn(C)cc3Cl)c2Cl)n1 [Compound 103],7 (Level 7: above 70% growth inhibition rate),7 (Level 7: above 70% growth inhibition rate),2 (Level 2: above 10% growth inhibition rate),10,10,3 (Level 3: above 20% growth inhibition rate),1 (Level 1: above 1-10% growth inhibition rate),0,0,,,,,,,,,,
CCOCc1c(S(C)(=O)=O)ccc(C(=O)c2c(CC)nn(CC)c2OC(=O)c2nn(C)cc2Cl)c1Cl [Compound 104],,,,,,,,,,10,8 (Level 8: above 80% growth inhibition rate),10,10,10,10,0,4 (Level 4: above 30% growth inhibition rate),0,
CCc1nn(C)c(C(=O)Oc2c(C(=O)c3ccc(S(C)(=O)=O)c(COCC(F)(F)F)c3Cl)cnn2C)c1Cl [Compound 105],,,,,,,,,,10,8 (Level 8: above 80% growth inhibition rate),9 (Level 9: above 90% growth inhibition rate),10,10,10,0,4 (Level 4: above 30% growth inhibition rate),0,
CCc1nn(C)c(C(=O)Oc2c(C(=O)c3ccc(S(C)(=O)=O)c(Cn4cccn4)c3Cl)c(C)nn2C(C)C)c1Cl [Compound 106],,,,,,,,,,10,8 (Level 8: above 80% growth inhibition rate),8 (Level 8: above 80% growth inhibition rate),10,10,10,0,1 (Level 1: above 1-10% growth inhibition rate),0,

# — patent publication US10556888B2, “Pyrazole compounds or salts thereof, preparation methods therefor, herbicidal compositions and use thereof” (QINGDAO KINGAGROOT CHEMICAL COMPOUNDS CO., LTD, priority 2015, dated 2020)
